Reference: patent EP4653001A1, “TREATMENT, DIAGNOSIS AND/OR PROGNOSIS OF MITOCHONDRIAL DISEASES” (Universidad Autónoma de Madrid, priority 2024, dated 2025)

What was measured:
Colo320 cells = assay: Colo320 xenograft tumor growth; type: in vivo, NMRI-Foxn1^nu/nu mice
Experimental: Xenografts experiments were carried out in 4 weeks old female NMRI-Foxn1^nu/nu mice that were subcutaneously injected with Colo320 cells. For each tumor, 2 million cells were resuspended in Matrigel Matrix: PBS solution (1:1) (Corning, #354234) and 100 uL of volume was injected in the flanks of each mouse. Tumors were measured every other day using digital vernier caliper until the volume reached […]. At this point, they were sacrificed with CO2 and posterior cervical disruption. Tumors were isolated and frozen in -80°C for future analysis. For volume calculation, we used the formula V = ((LxW^2))/(2) [formula] in mm^3, were V = tumor volume, W = tumor width and L = tumor length.
To inhibit Mitochondrial Complex I in vivo, we employed IACS-010759 (Selleckchem, #S8731), a small-molecule inhibitor of complex I. IACS was dissolved in DMSO at a 10% concentration and then prepared for administration at 0.5% in Methyl cellulose (Sigma, #M0262). Each mouse received a dose of 10 mg/kg for five consecutive days via oral gavage.
We propose that sensitivity to OXPHOS inhibitors can be, at least in part, mediated by combined expression of the NADPH-producing enzymes G6PD and ME1. To test this hypothesis […], we correlated protein expression of G6PD and ME1 for hundreds of cell lines. […]

143B cells = assay: Time-course cell proliferation / survival of 143B cells; type: cell-based; details: 143B cells under combined Piericidin and G6PDi, supplemented
Experimental: All cell lines, 143b, HeLa, U2OS, and transmitochondrial cybrids carrying mutation in CI (ND2), CIII (CytB) or CIV (Cox2) subunits, were maintained in DMEM high glucose (HyClone), 10% FBS and 1% P/S at 37°C with 5% CO2. Mitochondrial mutant cells were cultured with supplementation of 50 µg/mL uridine. The selected cancer cell lines with different levels of malic enzyme (HCC15, KYSE410, CAKI1, J82, MDAMB453, Colo320, NCIH1703) were obtained from the DSMZ-German Collection of Microorganisms and Cell Cultures GmbH and cultured in the same DMEM 10% FBS medium. OCI-Lys3 and RCH-ACV cell lines (cells in suspension), were obtained from the same repository and cultured in RPMI 10% FBS medium. Transfections for gain- and loss-of-function studies were performed according to the manufacturer's instructions using the polyfect reagent (Qiagen, 301107). […] Subsequently, cells were trypsinized and quantified using a hemocytometer (NanoEnTek, DHC-N01). Cell viability was quantified using propidium iodide (PI; 50 µg/ml) staining.
Next, we conducted time-course experiments to gain further knowledge on the metabolic determinants underlying the observed synthetic lethality between PPP and OXPHOS. 143B cells were treated either with Piericidin or G6PDi (selective inhibitor of G6PD) alone or the combination of both and cell proliferation was quantified over the course of 96 h. […]

143B cell lines = assay: Cell viability of CRISPR knock-out 143B cell lines treated with ETC inhibitors; type: cell-based
Experimental: All cell lines, 143b, HeLa, U2OS, and transmitochondrial cybrids carrying mutation in CI (ND2), CIII (CytB) or CIV (Cox2) subunits, were maintained in DMEM high glucose (HyClone), 10% FBS and 1% P/S at 37°C with 5% CO2. Mitochondrial mutant cells were cultured with supplementation of 50 µg/mL uridine. The selected cancer cell lines with different levels of malic enzyme (HCC15, KYSE410, CAKI1, J82, MDAMB453, Colo320, NCIH1703) were obtained from the DSMZ-German Collection of Microorganisms and Cell Cultures GmbH and cultured in the same DMEM 10% FBS medium. OCI-Lys3 and RCH-ACV cell lines (cells in suspension), were obtained from the same repository and cultured in RPMI 10% FBS medium. Transfections for gain- and loss-of-function studies were performed according to the manufacturer's instructions using the polyfect reagent (Qiagen, 301107). For cell number and proliferation experiments, cells were seeded in 12 or 6-well plates and allowed to proliferate for the specified durations. Subsequently, cells were trypsinized and quantified using a hemocytometer (NanoEnTek, DHC-N01). Cell viability was quantified using propidium iodide (PI; 50 µg/ml) staining.
Generation of knockout cell lines using CRISPR-Cas9 technology was performed with the lenti-CRISPR v2 vector (Addgene #52961). Guide sequences are: • sgGFPT1, 5-[…]-3 (SEQ ID NO: 1); • sgG6PD, 5-[…]-3 (SEQ ID NO: 2); • sgPHGDH, 5-[…]-3 (SEQ ID NO: 3); • sgMPC1, 5-[…]-3 (SEQ ID NO: 4) • sgPC, 5-CAGGCCCGGAACACACGGA-3 (SEQ ID NO: 5); • sgACLY, 5-[…]-3 (SEQ ID NO: 6); • sgME1, 5-[…]-3 (SEQ ID NO: 7).
To investigate glucose-dependent alternative metabolic pathways that become essential upon ETC inhibition, we generated through CRISPR/Cas9 technology, knock-out (KO) 143B cell lines for each of the following rate-limiting enzymes and transporters. We selected glucose 6 phosphate dehydrogenase (G6PD) for the PPP, Glutamine-Fructose-6-Phosphate Transaminase 1 (GFPT1) for the hexosamine pathway, Phosphoglycerate Dehydrogenase (PHGDH) for the serine biosynthesis pathway and Mitochondrial Pyruvate Carrier 1 (MPC1) to prevent pyruvate entry into the mitochondria. These KO and Control cells were treated with two specific ETC inhibitors (Piericidin A that targets Complex I and Antimycin A that targets Complex III) and cell viability was assessed after 3 days of treatment. […] We took advantage of the fruit fly Drosophila melanogaster model, as it is cost- and time-efficient and recapitulate a wide range of phenotypes seen in patients with metabolic and mitochondrial disorders. We obtained flies carrying mutations in Zw and Pgd genes (named: Pgd^39 Zw^lo2a), corresponding to human orthologs G6PD and 6PGD respectively. […]

Compound: Cc1nc(-c2nc(-c3ccc(OC(F)(F)F)cc3)no2)nn1Cc1cccc(N2CCC(S(C)(=O)=O)CC2)c1 [IACS-010759]
- effect on tumor size (Colo320 cells; Colo320 cells ectopically expressing ME1): completely lost
- tumor size (Colo320 cells; Colo320 cells subcutaneous in nude mice, 10 mg/kg oral gavage): prominently reduced

Compound: N[C@@H](CCC(=O)N[C@@H](CS)C(=O)NCC(=O)O)C(=O)O [GSH]
- cell death phenotype (143B cells): rescued

Compound: Antimycin A
- cell viability (143B cell lines; G6PD KO 143B cells, after 3 days of treatment): sensitive
- survival or proliferation (143B cell lines; KO cells for GFPT1, PHGDH or MPC1, after 3 days of treatment): no differences
